{"source": "patent US10738074B2", "about": "“Cyclic di-nucleotide compounds as STING agonists” (Merck Sharp & Dohme Corp., priority 2015, dated 2020)", "key": {"[1]": {"target": "full-length WT STING (Homo sapiens (Human), UniProt Q86WV6, H232R)", "sequence (Q86WV6 other isoform, or with tags, fused parts or gaps H232R (already in the parent))": "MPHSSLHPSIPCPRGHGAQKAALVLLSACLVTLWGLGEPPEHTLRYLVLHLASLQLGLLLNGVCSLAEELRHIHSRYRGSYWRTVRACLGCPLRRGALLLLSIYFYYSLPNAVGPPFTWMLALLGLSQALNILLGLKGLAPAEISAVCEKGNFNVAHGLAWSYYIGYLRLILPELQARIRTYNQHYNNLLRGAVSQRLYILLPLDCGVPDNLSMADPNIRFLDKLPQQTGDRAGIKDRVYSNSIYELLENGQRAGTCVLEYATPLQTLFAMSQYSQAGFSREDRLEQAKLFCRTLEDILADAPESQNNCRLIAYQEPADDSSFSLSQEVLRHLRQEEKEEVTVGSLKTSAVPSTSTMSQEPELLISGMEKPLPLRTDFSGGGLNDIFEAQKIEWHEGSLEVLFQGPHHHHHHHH", "assay": "3H-cGAMP filtration binding assay (WT STING)", "conditions": "competition with tritiated cGAMP, WT STING membrane", "excerpt": "(§1) The ability of compounds to bind STING is quantified by their ability to compete with tritiated cGAMP ligand for human STING receptor membrane using a radioactive filter-binding assay. The binding assay employs STING receptor obtained from Trichoplusia ni cell membranes (Tni; Expression Systems, cat #94-002F, www.expressionsystems.com) overexpressing full-length WT STING prepared in-house and tritiated cGAMP ligand also purified in-house.\nThe basic WT STING filtration assay protocol is as follows:\nThe filter plates were then dried at 55° C. for 30 min using a pressurized VWR oven before 30 uL of Ultima GoldF scintillate was added to each well. Tritium levels for each reaction well were then measured using a PerkinElmer TopCount plate reader.\n(§2) After normalization to controls, the percent activity for each compound concentration was calculated by measuring the amount of remaining radioactivity. The plot of percent activity versus the log of compound concentration was fit with a 4-parameter dose response equation to calculate EC50 values."}, "[2]": {"target": "full-length HAQ STING (Homo sapiens (Human), UniProt Q86WV6, G230A/H232R/R293Q/R71H)", "sequence (Q86WV6 other isoform, or with tags, fused parts or gaps, stated change not applied)": "as the sequence (Q86WV6 other isoform, or with tags, fused parts or gaps H232R (already in the parent)) above, with R71H, G230A, R293Q counted along it", "assay": "3H-cGAMP filtration binding assay (HAQ STING)", "conditions": "competition with tritiated cGAMP, HAQ STING membrane", "excerpt": "as §1, with “the” for “their”, “Hi-Five” for “Trichoplusia ni”, “membranes” for “membranes (Tni; Expression Systems, cat #94-002F, www.expressionsystems.com)”, “HAQ” for “WT”\nas §1, with “www.exrpressionsystems.com)” for “www.expressionsystems.com)”, “HAQ” for “WT”\nThe basic HAQ STING filtration assay protocol is as follows:\nCompound and membrane then preincubated for 60 min at RT to allow compound binding to equilibrate. Following equilibration, 8 nM of [^3H] c-GAMP ligand was prepared by diluting into assay buffer, and 50 uL of this working stock was then manually added to each well of the assay plate. […] The filter plates were then dried at 55° C. for 30 min using a pressurized VWR oven before 30 uL of Ultima GoldF scintillate was added to each well. Tritium levels for each reaction well were then measured using a PerkinElmer TopCount plate reader.\nas §2"}, "[3]": {"system": "THP1 cells", "assay": "IFN-β secretion in THP1 cell culture (5 h)", "format": "cell-based, human", "conditions": "IFN-β secretion, THP1 cells, 5 h, 30 μM", "experimental": "The ability of compounds to stimulate the secretion of interferon-beta from THP1 cells was measured using a human IFN-β AlphaLISA kit (Perkin Elmer, Cat. No. AL265F). The basic protocol is as follows:\nA Labcyte Echo 550 acoustic dispenser was used to transfer 120 nL of compound dissolved in DMSO into the wells of an empty, sterile 384-well microplate, (Corning, Cat. No. 3712). THP1 cells (American Type Culture Collection, Cat. No. TIB202) previously frozen in Recovery Medium (Life Technologies, Cat. No. 12648-010) were thawed and immediately diluted 10-fold into 37° C. assay medium (RPMI 1640+L-Glutamine & phenol red, Life Technologies, Cat. No. 11875-085; 0.5% heat inactivated fetal bovine serum, Sigma Aldrich, Cat. No. F4135; 1 mM Sodium Pyruvate, Life Technologies, Cat. No. 11360-070; lx non-essential amino acids; Life Technologies, Cat. No. 11140-050). The cell viability and count was ascertained using a Beckman Coulter V-Cell XR cell counter. The cells suspension was centrifuged at 200×g for 5 min at RT. Cells were resuspended to a density of 0.8×10^6/mL in 37° C. assay medium. Subsequent liquid transfers were performed using either a Matrix electronic multichannel pipette or an Agilent Bravo Automated Liquid Handling Platform.\nThe assay was started by dispensing 40 μL of the previously prepared cell suspension into the wells of the plate containing compounds. After 5 h incubation at 37° C., 5% CO2 in a humidified atmosphere, the plate of cells and compounds was centrifuged at 200×g for 5 min at RT. From each well, 5 μL of supernatant was transferred into corresponding wells of a white 384-well plate (Perkin Elmer, Cat. No. 6005620). To these supernatant-containing wells was added 10 μL of 5× Anti-Analyte Acceptor beads (50 μg/mL of AlphaLISA HiBlock Buffer) and incubated for 30 min at RT while shaking on an orbital plate shaker. To each well was added 10 μL of 5× Biotinylated Antibody Anti-analyte (5 nM in AlphaLISA HiBlock Buffer) and incubated on an orbital plate shaker for 60 min at RT or overnight at 4° C. To each well was added 25 μL of 2× SA-Donor beads (80 μg/mL in AlphaLISA HiBlock Buffer) and incubated for 30-45 min at RT in the dark while shaking on an orbital plate shaker. The plate was then read on a Perkin Elmer Envision (λex=680 nm, λem=[…]). The percent effect of the AlphaLISA signal at each compound concentration was calculated based on 30 uM cGAMP positive controls and 0.3% DMSO negative controls. The plot of percent effect versus the log of compound concentration was fit with a 4-parameter concentration response equation to calculate EC50 values. The test compounds were tested at concentrations 30000, 10000, 3333, 1111, 370.4, 123.4, 41.2, 13.7, 4.6, and 1.5 nM with 0.3% residual DMSO.\nCompounds of the disclosure were evaluated for IFN-β secretion in THP1 cell culture as described above. The following table tabulates the biological data for these compounds as percent activation relative to 2′3′-cGAMP at the 30 μM concentration."}}}
{"compound": "Nc1nc2c(ncn2[C@H]2O[C@@H]3COP(=O)(O)O[C@@H]4[C@H](N)[C@@H](COP(=O)(O)O[C@@H]2[C@@H]3O)O[C@H]4n2cnc3c(N)ncnc32)c(=O)[nH]1", "note": "[Example 34]", "values": [{"measurement": "EC50", "setting": "[1]", "value": "< 1", "unit": "nM"}, {"measurement": "EC50", "setting": "[2]", "value": "< 1", "unit": "nM"}, {"measurement": "% Effect at 30 μM relative to 2′3′-cGAMP", "setting": "[3]", "value": 132, "unit": "%"}]}
